Reference: patent US10828436B2, “Administering the noble gas argon during cardiopulmonary resuscitation” (Vanderbilt University, priority 2016, dated 2020)

Legend:
[1] = tested on: pig model of cardiac arrest; assay: Pig model of cardiac arrest and CPR with Argon/O2 given during CPR before ROSC; format: in vivo
Description: Argon treatment led to higher systemic pulse pressures (arterial pressure during compression minus pressure during decompression), a lower number of defibrillation attempts and epinephrine requirements to achieve ROSC, a higher ROSC rate, lower lactic acidosis upon ROSC and lower cardiac injury markers (CK-MB and Troponin I) 6 hours after ROSC.
In one example, in-vivo experiments included a systematic study of the effect of Argon administered during CPR in a pig model of cardiac arrest on cardiac and neurological function, histological and other molecular effects after ROSC including 24- or 48 hr survival studies. […] Other examples include cell culture (in vitro) and isolated heart (ex vivo) experiments. The in vitro experiments include a systematic study of the effect of Argon administered on reoxygenation after prolonged hypoxia on markers of cellular injury and cell death in cardiomycytes and neuronal cell cultures. The ex vivo experiments include a systematic study of the effect of Argon administered on reperfusion after global coronary ischemia on coronary and myocardial function and infarct size in rat isolated hearts. […]

human cardiomyocytes = assay: Hypoxia/reoxygenation in isolated cells, LDH injury marker; format: cell-based; settings: Argon for 10 min or 30 min upon reoxygenation after hypoxia, vs control HR with nitrogen
Description: (§1) These experiments show no evidence that Argon, given for 10 min or 30 min upon reoxygenation (R) after hypoxia (H), directly improves the cellular injury marker lactate dehydrogenase (LDH) compared to control HR with nitrogen.
(§2) In one example, in-vivo experiments included a systematic study of the effect of Argon administered during CPR in a pig model of cardiac arrest on cardiac and neurological function, histological and other molecular effects after ROSC including 24- or 48 hr survival studies. […] Other examples include cell culture (in vitro) and isolated heart (ex vivo) experiments. The in vitro experiments include a systematic study of the effect of Argon administered on reoxygenation after prolonged hypoxia on markers of cellular injury and cell death in cardiomycytes and neuronal cell cultures. The ex vivo experiments include a systematic study of the effect of Argon administered on reperfusion after global coronary ischemia on coronary and myocardial function and infarct size in rat isolated hearts.

[2] = tested on: coronary artery endothelial cells; assay: as above; format: cell-based, human; settings: Argon for 10 min or 30 min upon reoxygenation after hypoxia, vs control HR with nitrogen
Description: as §1

rat isolated hearts = assay: Rat isolated hearts, 30 min global no-flow ischemia and 120 min reperfusion; settings: for defibrillation by lidocaine administration required to convert back to sinus rhythm: vs control hearts, P<0.05
Text: as §2

rat isolated lungs = assay: Rat isolated lungs, pulmonary vascular resistance under different gas mixtures
Description: Rat isolated lungs ventilated with either 65% N2 or 65% Argon plus 30% O2 and 5% CO2 and perfused at a rate of 40 mL/kg body weight with physiological salt solution plus 4% albumin via cannulas placed into the pulmonary artery (PA) and left atrium. PA pressure is recorded throughout the experiment and analyzed to determine the effect of different gas mixtures on the pulmonary vascular resistance. Argon led to a reversible 28% drop in pulmonary perfusion pressure at constant flow compared to ventilation with Nitrogen before and after. P<0.05*vs Nitrogen, † vs Argon.

[3] = gas mixture given during CPR, pigs
[4] = 65% Argon for 10 or 120 min of reperfusion vs 65% Nitrogen

[Ar] [Argon, argon]
outcome parameters ([1]; CPR with 70% Argon, compared to control animals without Argon during CPR, in words): much improved
systemic pulse pressures (arterial pressure during compression minus pressure during decompression) ([1]; during CPR, vs Nitrogen/O2, in words): higher
Arterial pH upon ROSC [1, 3]: 7.27 ± 0.05
CK-MB 6 hrs after ROSC [1, 3]: 15.2 ± 4.3 ng/mL
Epinephrine dose to achieve ROSC [1, 3]: 0.7 ± 0.2 mg
Lactate upon ROSC [1, 3]: 6.8 ± 0.7 mEq
Number of defibrillations to achieve ROSC [1, 3]: 2.4 ± 1.0 n
Pulse pressure at 3 min CPR [1, 3]: 62.3 ± 3.7 mmHg
ROSC [1, 3]: 100%
Troponin I 6 hrs after ROSC [1, 3]: 6.8 ± 4.7 ng/mL
ROSC rate ([1]; vs Nitrogen/O2, in words): higher
cardiac injury markers (CK-MB and Troponin I) 6 hours after ROSC ([1]; vs Nitrogen/O2, in words): lower
epinephrine requirements to achieve ROSC ([1]; vs Nitrogen/O2, in words): lower
lactic acidosis upon ROSC ([1]; vs Nitrogen/O2, in words): lower
number of defibrillation attempts to achieve ROSC ([1]; vs Nitrogen/O2, in words): lower
number of defibrillation attempts to achieve ROSC ([1]; vs Nitrogen/O2, in words, listed as 70% Argon): less
improvement of cellular injury marker lactate dehydrogenase (LDH) (human cardiomyocytes): no evidence
improvement of cellular injury marker lactate dehydrogenase (LDH) [2]: no evidence
coronary or myocardial function (diastolic and developed left ventricular pressure, coronary flow) (rat isolated hearts; [4]): no evidence of improved
infarct size (rat isolated hearts; [4]): no evidence of improved
defibrillation by lidocaine administration required to convert back to sinus rhythm (rat isolated hearts): significantly less
defibrillation by lidocaine administration required to convert back to sinus rhythm (rat isolated hearts; listed as 70% Argon): less
drop in pulmonary perfusion pressure at constant flow (rat isolated lungs; 65% Argon plus 30% O2 and 5% CO2, reversible, vs ventilation with Nitrogen before and after): 28%
pulmonary artery pressure at constant flow (rat isolated lungs; isolated lungs, in words): lower
